Reference: patent US8785488B2 (Exelixis Patent Company LLC, priority 2009, dated 2014)

Experiments:
h-TGR5 = target: T1, h-TGR5 (Homo sapiens, UniProt Q8TDU6); assay: TGR5 cAMP Assay using Cisbio cAMP Dynamic2 htrf kit (hTGR5CRE-luc HEK 293 cells); format: cell-based; details: h-TGR5 cAMP EC50, Table 1; read-out: cAMP (EC50)
T1 construct: expressed in transfected cells
T1 sequence (Q8TDU6 1-330): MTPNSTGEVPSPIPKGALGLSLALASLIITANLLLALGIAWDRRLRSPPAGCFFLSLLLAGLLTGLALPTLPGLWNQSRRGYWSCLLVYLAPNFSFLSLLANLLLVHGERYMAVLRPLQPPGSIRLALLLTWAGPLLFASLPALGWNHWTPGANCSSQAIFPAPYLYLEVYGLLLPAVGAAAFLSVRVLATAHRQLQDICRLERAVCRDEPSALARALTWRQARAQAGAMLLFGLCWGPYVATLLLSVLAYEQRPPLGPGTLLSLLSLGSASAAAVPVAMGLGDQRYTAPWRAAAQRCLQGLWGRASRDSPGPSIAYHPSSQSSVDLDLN
Summary of the method: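 […], 4000 hTGR5CRE-luc HEK 293 cells per well, with 0.5 mM IBMX and d2-cAMP, were incubated 30 min at room temperature with compounds in 8-point half-log series, in quadruplicate.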

human TGR5 (h-TGR5) = target: T2, human TGR5 (h-TGR5) (Homo sapiens, UniProt Q8TDU6); assay: TGR5/CRE-Luciferiase Assay (HEK 293 hTGR5/CRE-Luc cells); format: cell-based; details: h-TGR5 CRE-Luc EC50, Table 1; read-out: CRE-Luc (EC50)
T2 construct: expressed in transfected cells
T2 sequence (Q8TDU6 1-330): T1 sequence (Q8TDU6 1-330)
Summary of the method: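 HEK293 cells stably carrying hTGR5 and a CRE-luciferase reporter were exposed to serially diluted compounds (diluted in DMEM with 5% DMSO) for 6 h. Cells were then lysed in luciferase buffer, luminescence was read, and EC50 values were derived from dose-response curves.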

| Structure (SMILES) | EC50 (h-TGR5) | EC50 (human TGR5 (h-TGR5)) |
| --- | --- | --- |
| COc1cc(C(C)(C)c2cnc(SCc3c(F)cc(C(=O)NC(CCCCNC(=N)N)C(=O)O)cc3Cl)n2-c2ccc(F)cc2)ccc1Cl [N-6-[amino(imino)methyl]-N-2-{[3-chloro-4-({[5-{1-[4-chloro-3-(methyloxy)phenyl]-1-methylethyl}-1-(4-fluorophenyl)-1H-imidazol-2-yl]thio}methyl)-5-fluorophenyl]carbonyl}-L-lysine] | < 100 nM | < 100 nM |
| COc1cc(C(C)(C)c2cnc(SCc3c(F)cc(OCCNC(=N)NC(=N)N)cc3F)n2-c2ccc(F)cc2)ccc1Cl [N-(2-{[4-({[5-{1-[4-chloro-3-(methyloxy)phenyl]-1-methylethyl}-1-(4-fluorophenyl)-1H-imidazol-2-yl]thio}methyl)-3,5-difluorophenyl]oxy}ethyl)imido dicarbonimidic diamide] | < 100 nM | < 100 nM |
| CC(C)(c1ccc(Cl)c(Cl)c1)c1cnc(CNC2CCN(S(C)(=O)=O)CC2)n1-c1ccc(F)cc1 [N-({5-[1-(3,4-dichlorophenyl)-1-methylethyl]-1-(4-fluorophenyl)-1H-imidazol-2-yl}methyl)-1-(methylsulfonyl)piperidin-4-amine] | 1000 to 10000 nM | 1000 to 10000 nM |
| CC(C)(c1ccc(Cl)c(Cl)c1)c1cnc(S(=O)(=O)NCc2ccc(F)cc2Cl)n1-c1ccc(F)cc1 [N-[(2-chloro-4-fluorophenyl)methyl]-5-[1-(3,4-dichlorophenyl)-1-methylethyl]-1-(4-fluorophenyl)-1H-imidazole-2-sulfonamide] | 100 to 1000 nM | < 100 nM |
| CC(C)(c1ccc(Cl)c(Cl)c1)c1cnc(S(=O)(=O)NCc2c(F)cccc2Cl)n1-c1ccc(F)cc1 [N-[(2-chloro-6-fluorophenyl)methyl]-5-[1-(3,4-dichlorophenyl)-1-methylethyl]-1-(4-fluorophenyl)-1H-imidazole-2-sulfonamide] | 100 to 1000 nM | 100 to 1000 nM |
| COc1cc(C(C)(C)c2cnc(NCc3ccc(Cl)cc3F)n2-c2ccc(F)cc2)ccc1Cl [N-[(4-chloro-2-fluorophenyl)methyl]-5-{1-[4-chloro-3-(methyloxy)phenyl]-1-methylethyl}-1-(4-fluorophenyl)-1H-imidazol-2-amine] | 1000 to 10000 nM | 1000 to 10000 nM |
| COc1cc(C(C)(C)c2cnc(SCc3ccc(S(=O)(=O)NC(=O)N4CCC(O)C4)cc3Cl)n2-c2ccc(F)cc2)ccc1Cl (stereo not drawn) [N-{[3-chloro-4-({[5-{1-[4-chloro-3-(methyloxy)phenyl]-1-methylethyl}-1-(4-fluorophenyl)-1H-imidazol-2-yl]thio}methyl)phenyl]sulfonyl}-3-hydroxypyrrolidine-1-carboxamide] | < 100 nM | 1000 to 10000 nM |
| COc1cc(C(C)(C)c2cnc(SCc3ccc(S(=O)(=O)NC(=O)N4CCCC4)cc3Cl)n2-c2ccc(F)cc2)ccc1Cl [N-{[3-chloro-4-({[5-{1-[4-chloro-3-(methyloxy)phenyl]-1-methylethyl}-1-(4-fluorophenyl)-1H-imidazol-2-yl]thio}methyl)phenyl]sulfonyl}pyrrolidine-1-carboxamide] | < 100 nM | 100 to 1000 nM |
| COc1cc(C(C)(C)c2cnc(SCc3ccc(C(=O)NCCC(=O)O)cc3F)n2-c2ccc(F)cc2)ccc1Cl [N-{[4-({[5-{1-[4-chloro-3-(methyloxy)phenyl]-1-methylethyl}-1-(4-fluorophenyl)-1H-imidazol-2-yl]thio}methyl)-3-fluorophenyl]carbonyl}-beta-alanine] | < 100 nM | < 100 nM |
| COc1ccc(C(C)(C)c2cnc(CN(C)c3c(F)cccc3Cl)n2-c2ccc(F)cc2)cc1OC [N-{[5-{1-[3,4-bis(methyloxy)phenyl]-1-methylethyl}-1-(4-fluorophenyl)-1H-imidazol-2-yl]methyl}-2-chloro-6-fluoro-N-methylaniline] | < 100 nM | < 100 nM |
| COc1ccc(C(C)(C)c2cnc(CNc3c(F)cccc3Cl)n2-c2ccc(F)cc2)cc1OC [N-{[5-{1-[3,4-bis(methyloxy)phenyl]-1-methylethyl}-1-(4-fluorophenyl)-1H-imidazol-2-yl]methyl}-2-chloro-6-fluoroaniline] | 100 to 1000 nM | < 100 nM |
| CCOC(=O)NS(=O)(=O)c1ccc(CSc2ncc(C(C)(C)c3ccc(S(N)(=O)=O)c(Cl)c3)n2-c2ccc(F)c(OC)c2)c(Cl)c1 [ethyl [(4-{[(5-{1-[4-(aminosulfonyl)-3-chlorophenyl]-1-methylethyl}-1-[4-fluoro-3-(methyloxy)phenyl]-1H-imidazol-2-yl)thio]methyl}-3-chlorophenyl)sulfonyl]carbamate] | < 100 nM | < 100 nM |
| CCOC(=O)NS(=O)(=O)c1ccc(CSc2ncc(C(C)(C)c3ccc(OC)c(Cl)c3)n2-c2ccc(F)cc2)c(Cl)c1 [ethyl {[3-chloro-4-({[5-{1-[3-chloro-4-(methyloxy)phenyl]-1-methylethyl}-1-(4-fluorophenyl)-1H-imidazol-2-yl]thio}methyl)phenyl]sulfonyl}carbamate] | < 100 nM | < 100 nM |

Now from value to molecule:

| EC50 (h-TGR5) | EC50 (human TGR5 (h-TGR5)) | Structure (SMILES) |
| --- | --- | --- |
| < 100 nM | < 100 nM | COc1cc(C(C)(C)c2cnc(SCc3c(F)cc(S(=O)(=O)NCCCNC(=N)N)cc3F)n2-c2ccc(F)cc2)ccc1Cl [N-(3-{[amino(imino)methyl]amino}propyl)-4-({[5-{1-[4-chloro-3-(methyloxy)phenyl]-1-methylethyl}-1-(4-fluorophenyl)-1H-imidazol-2-yl]thio}methyl)-3,5-difluorobenzenesulfonamide] |
| 100 to 1000 nM | 100 to 1000 nM | CC(=O)NS(=O)(=O)c1ccc(CSc2ncc(C(C)(C)c3ccc(Cl)c(Cl)c3)n2-c2ccc(F)cc2)c(Cl)c1 [N-({3-chloro-4-[({5-[1-(3,4-dichlorophenyl)-1-methylethyl]-1-(4-fluorophenyl)-1H-imidazol-2-yl}thio)methyl]phenyl}sulfonyl)acetamide] |
| 100 to 1000 nM | 100 to 1000 nM | CC(C)(c1ccc(Cl)c(Cl)c1)c1cnc(SCc2ccc(C(=O)NCC(=O)O)cc2F)n1-c1ccc(F)cc1 [N-({4-[({5-[1-(3,4-dichlorophenyl)-1-methylethyl]-1-(4-fluorophenyl)-1H-imidazol-2-yl}thio)methyl]-3-fluorophenyl}carbonyl)glycine] |
| < 100 nM | < 100 nM | COc1cc(-n2c(C(C)(C)c3ccc(Cl)c(Cl)c3)cnc2SCc2c(F)cc(C(=O)NCCC(=O)O)cc2F)ccc1F [N-({4-[({5-[1-(3,4-dichlorophenyl)-1-methylethyl]-1-[4-fluoro-3-(methyloxy)phenyl]-1H-imidazol-2-yl}thio)methyl]-3,5-difluorophenyl}carbonyl)-beta-alanine] |
| 100 to 1000 nM | 100 to 1000 nM | CC(C)(c1ccc(Cl)c(Cl)c1)c1cnc(SCc2ccc(F)c(C(=O)NCC(=O)O)c2)n1-c1ccc(F)cc1 [N-({5-[({5-[1-(3,4-dichlorophenyl)-1-methylethyl]-1-(4-fluorophenyl)-1H-imidazol-2-yl}thio)methyl]-2-fluorophenyl}carbonyl)glycine] |
| < 100 nM | < 100 nM | COc1cc(-n2c(C(C)(C)c3ccc(S(N)(=O)=O)c(Cl)c3)cnc2SCc2c(F)cc(C(=O)NCCC(=O)O)cc2F)ccc1F [N-[(4-{[(5-{1-[4-(aminosulfonyl)-3-chlorophenyl]-1-methylethyl}-1-[4-fluoro-3-(methyloxy)phenyl]-1H-imidazol-2-yl)thio]methyl}-3,5-difluorophenyl)carbonyl]-beta-alanine] |
| < 100 nM | < 100 nM | COc1cc(-n2c(C(C)(C)c3ccc(S(N)(=O)=O)c(Cl)c3)cnc2SCc2ccc(C(=O)NCCC(=O)O)cc2F)ccc1F [N-[(4-{[(5-{1-[4-(aminosulfonyl)-3-chlorophenyl]-1-methylethyl}-1-[4-fluoro-3-(methyloxy)phenyl]-1H-imidazol-2-yl)thio]methyl}-3-fluorophenyl)carbonyl]-beta-alanine] |
| 100 to 1000 nM | 100 to 1000 nM | CC(C)(c1ccc(Cl)c(Cl)c1)c1cnc(SCc2ccc(F)cc2Cl)n1-c1ccc(F)c(CO)c1 [[5-(2-{[(2-chloro-4-fluorophenyl)methyl]thio}-5-[1-(3,4-dichlorophenyl)-1-methylethyl]-1H-imidazol-1-yl)-2-fluorophenyl]methanol] |
| < 100 nM | < 100 nM | CC(C)(c1ccc(Cl)c(Cl)c1)c1cnc(SCc2c(F)cc(C(=O)NCS(=O)(=O)O)cc2F)n1-c1ccc(F)c(Cl)c1 [[({4-[({1-(3-chloro-4-fluorophenyl)-5-[1-(3,4-dichlorophenyl)-1-methylethyl]-1H-imidazol-2-yl}thio)methyl]-3,5-difluorophenyl}carbonyl)amino]methanesulfonic acid] |
| < 100 nM | < 100 nM | COc1cc(-n2c(C(C)(C)c3ccc(Cl)c(Cl)c3)cnc2SCc2c(F)cc(C(=O)NCS(=O)(=O)O)cc2F)ccc1F [[({4-[({5-[1-(3,4-dichlorophenyl)-1-methylethyl]-1-[4-fluoro-3-(methyloxy)phenyl]-1H-imidazol-2-yl}thio)methyl]-3,5-difIuorophenyl}carbonyl)amino]methanesulfonic acid] |
| 100 to 1000 nM | 100 to 1000 nM | CCOC(=O)NS(=O)(=O)c1ccc(CSc2ncc(C(C)(C)c3ccc(Cl)c(Cl)c3)n2-c2ccc(F)c(OC)c2)c(Cl)c1 [ethyl ({3-chloro-4-[({5-[1-(3,4-dichlorophenyl)-1-methylethyl]-1-[4-fluoro-3-(methyloxy)phenyl]-1H-imidazol-2-yl}thio)methyl]phenyl}sulfonyl)carbamate] |
